The supplement of paper PMC10307832

Columns and labels:
Test in all cases: relative viability (nuclei count vs DMSO), 5 days (fraction); higher = more cells survive
[1] = compound: CC1CC(=O)N(C2=CN=C(N=C2N1C3CCCC3)NC4=C(C=C(C=C4)C(=O)NC5CCN(CC5)C)OC)C [NPK76-II-72-1] + COc1cc2c(Oc3ccc(NC(=O)C4(C(=O)Nc5ccc(F)cc5)CC4)cc3F)ccnc2cc1OCCCN1CCOCC1 [Foretinib] (partner 0.25 µM)
In short: (§1)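 Cells from lung cancer lines were seeded into 1536-well plates and, one day later, dosed by pin tool. Treatments were either a single drug or a fixed dose of an anchor drug with five library-drug doses (not always all listed) in √10 steps. After 5 days, nuclei were stained in a one-step fixation (final 0.05% Triton X-100, 1% formaldehyde, 1 ug/ml Hoechst) and counted on 4× images, and relative viability is the treated-to-vehicle nuclei ratio, as the median of duplicate plates.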

BI-2536 + Pictilisib = compound: CC[C@@H]1C(=O)N(C)c2cnc(Nc3ccc(C(=O)NC4CCN(C)CC4)cc3OC)nc2N1C1CCCC1 [BI-2536] + CS(=O)(=O)N1CCN(Cc2cc3nc(-c4cccc5[nH]ncc45)nc(N4CCOCC4)c3s2)CC1 [Pictilisib] (partner 1 µM)
In short: as §1

[2] = compound: CC1CC(=O)N(C2=CN=C(N=C2N1C3CCCC3)NC4=C(C=C(C=C4)C(=O)NC5CCN(CC5)C)OC)C [NPK76-II-72-1] + C[C@@H](Oc1cc(-c2cnn(C3CCNCC3)c2)cnc1N)c1c(Cl)ccc(F)c1Cl [Crizotinib] (partner 1 µM)
In short: as §1

[3] = compound: CC1CC(=O)N(C2=CN=C(N=C2N1C3CCCC3)NC4=C(C=C(C=C4)C(=O)NC5CCN(CC5)C)OC)C [NPK76-II-72-1] + C[C@]1(O)C[C@@H](c2nc(-c3ccc4ccc(-c5ccccc5)nc4c3)c3c(N)nccn32)C1 [Linsitinib] (partner 1 µM)
In short: as §1

Cell Line | relative viability ([1]; first compound 0.01 µM) | relative viability ([1]; first compound 0.03162 µM) | relative viability ([1]; first compound 0.1 µM) | relative viability ([1]; first compound 0.3162 µM) | relative viability ([1]; first compound 1 µM) | relative viability (BI-2536 + Pictilisib; first compound 0.01 µM) | relative viability (BI-2536 + Pictilisib; first compound 0.03162 µM) | relative viability (BI-2536 + Pictilisib; first compound 0.1 µM) | relative viability (BI-2536 + Pictilisib; first compound 0.3162 µM) | relative viability (BI-2536 + Pictilisib; first compound 1 µM) | relative viability ([2]; first compound 0.01 µM) | relative viability ([2]; first compound 0.03162 µM) | relative viability ([2]; first compound 0.1 µM) | relative viability ([2]; first compound 0.3162 µM) | relative viability ([2]; first compound 1 µM) | relative viability ([3]; first compound 0.01 µM) | relative viability ([3]; first compound 0.03162 µM) | relative viability ([3]; first compound 0.1 µM) | relative viability ([3]; first compound 0.3162 µM) | relative viability ([3]; first compound 1 µM)
HCC-15 | 1.05 | 1.18 | 0.92 | 0.969 | 1.1 | 0.746 | 0.795 | 0.365 | 0.124 | 0.117 | 0.773 | 0.874 | 0.846 | 0.756 | 0.834 | 0.85 | 0.911 | 0.952 | 0.826 | 0.953
A-427 | 0.923 | 1.04 | 1.08 | 1.14 | 1.07 | 0.776 | 0.707 | 0.606 | 0.0766 | 0.122 | 0.798 | 0.908 | 0.907 | 0.777 | 0.969 | 1.1 | 1.09 | 1.15 | 1.14 | 1.13
NCI-H2228 | 0.845 | 1.07 | 0.794 | 0.914 | 0.832 | 0.39 | 0.374 | 0.218 | 0.13 | 0.165 | 0.404 | 0.611 | 0.48 | 0.39 | 0.711 | 0.428 | 0.572 | 0.763 | 0.66 | 0.736
NCI-H1734 | 0.84 | 0.792 | 0.857 | 0.84 | 1.22 | 0.402 | 0.387 | 0.347 | 0.17 | 0.216 | 0.703 | 0.666 | 0.727 | 0.642 | 0.736 | 0.896 | 0.899 | 0.883 | 0.884 | 0.904
PC-14 | 0.936 | 1.1 | 0.894 | 0.928 | 1.01 | 0.688 | 0.563 | 0.156 | 0.0423 | 0.0236 | 0.872 | 0.944 | 0.904 | 0.809 | 1.03 | 0.927 | 1.1 | 0.938 | 0.874 | 1.06
NCI-H1915 | 1.09 | 1.13 | 1.1 | 1.06 | 1.09 | 0.866 | 0.899 | 0.264 | 0.074 | 0.0908 | 0.87 | 0.969 | 0.874 | 0.891 | 0.876 | 1.11 | 1.1 | 1.11 | 1.07 | 1.14
NCI-H1666 | 0.909 | 1.04 | 0.855 | 0.918 | 1.06 | 0.558 | 0.393 | 0.2 | 0.221 | 0.2 | 0.855 | 1.03 | 0.92 | 0.917 | 1.09 | 0.78 | 0.815 | 0.783 | 0.8 | 0.79
HCC-366 | 0.929 | 0.953 | 0.906 | 0.944 | 0.951 | 0.144 | 0.179 | 0.0833 | 0.0304 | 0.0488 | 0.458 | 0.683 | 0.694 | 0.429 | 0.59 | 0.54 | 0.688 | 0.704 | 0.707 | 0.777
SK-MES-1 | 0.975 | 0.957 | 0.877 | 0.808 | 0.912 | 0.357 | 0.374 | 0.304 | 0.157 | 0.127 | 0.967 | 0.999 | 1.01 | 0.956 | 1.02 | 1.05 | 1.07 | 0.994 | 0.995 | 1.15
SW 1573 | 0.997 | 1.02 | 0.914 | 0.963 | 0.824 | 0.477 | 0.479 | 0.263 | 0.142 | 0.118 | 0.637 | 0.891 | 0.77 | 0.686 | 0.912 | 0.808 | 0.794 | 0.721 | 0.728 | 0.681
NCI-H661 | 0.997 | 1.01 | 1.03 | 0.909 | 1.07 | 0.411 | 0.37 | 0.255 | 0.247 | 0.217 | 0.873 | 0.937 | 0.982 | – | 0.995 | 0.536 | 0.557 | 0.546 | 0.525 | 0.519
PC-3 [JPC-3] | 1.04 | 1.06 | 0.96 | 0.952 | 1.12 | 0.682 | 0.769 | 0.441 | 0.268 | 0.291 | 0.943 | 0.958 | 0.998 | 0.938 | 0.995 | 0.927 | 0.91 | 0.936 | 0.935 | 0.963
NCI-H1623 | 0.836 | 0.872 | 0.914 | 0.566 | 0.998 | – | – | – | – | – | – | – | – | – | – | – | – | – | – | –
Calu-6 | 0.833 | 0.991 | 0.772 | 0.823 | 0.913 | 0.894 | 0.396 | 0.107 | 0.0926 | 0.0965 | 0.757 | 0.784 | 0.763 | 0.713 | 0.861 | 0.981 | 0.912 | 0.897 | 0.948 | 0.946
LC-2-ad | 0.908 | 0.948 | 0.94 | 0.809 | 1.08 | 0.552 | 0.192 | 0.0937 | 0.0909 | 0.0871 | 0.449 | – | 0.453 | 0.44 | 0.51 | 0.78 | 0.767 | 0.854 | 0.801 | 0.834
CAL-12T | 1.11 | 1.18 | 1.03 | 1.1 | 1.3 | 0.536 | 0.401 | 0.178 | 0.181 | 0.141 | 0.685 | 0.665 | 0.719 | 0.544 | 0.674 | 0.721 | 1.07 | 0.737 | 0.736 | 0.808
RERF-LC-KJ | 0.768 | 0.899 | 0.894 | 0.808 | 0.884 | 0.565 | 0.48 | 0.249 | 0.145 | 0.206 | 0.808 | 0.644 | 0.771 | 0.728 | 0.868 | 0.902 | 0.876 | 0.802 | 0.771 | 0.923
NCI-H1650 | 1.16 | 1.06 | 0.966 | 0.943 | 1.37 | 0.567 | 0.366 | 0.146 | 0.162 | 0.0901 | 1.01 | 1.07 | 0.861 | 0.917 | 1.11 | – | – | – | – | –
BEN | 0.676 | 0.526 | 0.748 | 0.657 | 0.635 | 0.574 | 0.48 | 0.389 | 0.235 | 0.209 | 0.89 | 1.07 | 0.908 | 0.77 | 0.893 | 0.946 | 1.01 | 0.87 | 0.881 | 0.879
EMC-BAC-2 | 1.05 | 1.07 | 1.07 | 0.945 | 1.2 | 0.502 | 0.559 | 0.305 | 0.162 | 0.163 | 0.765 | 0.817 | 0.658 | 0.783 | 0.823 | 0.814 | 0.848 | 0.848 | 0.747 | 0.793
LU99A | 0.774 | 0.765 | 0.936 | 0.503 | 0.979 | 0.308 | 0.301 | 0.14 | 0.128 | 0.138 | 0.563 | 0.596 | 0.649 | 0.508 | 0.584 | 0.57 | 0.522 | 0.584 | 0.479 | 0.518
ABC-1 | 1.06 | 1.12 | 0.799 | 1.08 | 1.17 | 0.81 | 0.609 | 0.214 | 0.31 | 0.243 | 0.907 | 1.13 | 1.06 | 1.01 | 1.1 | 0.599 | 0.558 | 0.861 | 0.703 | 0.767
NCI-H2170 | 0.909 | 0.975 | 1.01 | 0.885 | 1.06 | 0.342 | 0.295 | 0.192 | 0.184 | 0.168 | 1.08 | 1.18 | 1.11 | – | 1.3 | – | – | – | – | –
NCI-H2342 | 0.948 | 1.1 | 1.09 | 0.88 | 1.15 | – | – | – | – | – | – | – | – | – | – | – | – | – | – | –
NCI-H1792 | – | – | – | – | – | 0.307 | 0.354 | 0.207 | 0.111 | 0.0623 | 1.05 | 0.817 | 0.968 | 1 | 1.07 | 0.615 | 0.629 | 0.52 | 0.492 | 0.591
ChaGo-K-1 | 0.923 | 0.91 | 0.994 | 0.92 | 0.882 | 0.643 | 0.535 | 0.243 | 0.275 | 0.354 | 1.11 | 1.18 | 1.11 | 1.12 | 1.19 | – | – | – | – | –
HCC-44 | – | – | – | – | – | 0.68 | 0.769 | 0.257 | 0.0696 | 0.0951 | 0.734 | 0.772 | 0.827 | 0.795 | 0.846 | 0.634 | 0.701 | 0.635 | 0.681 | 0.716
NCI-H1793 | 0.659 | 0.687 | 0.747 | 0.559 | 0.533 | 0.294 | 0.214 | 0.191 | 0.174 | 0.159 | – | – | – | – | – | 0.771 | 0.962 | 0.971 | 0.495 | 0.742
NCI-H1395 | 1.02 | 0.959 | 0.954 | 1.1 | 0.95 | 0.622 | 0.524 | 0.747 | 0.339 | 0.357 | – | – | – | – | – | 1.08 | 1.17 | 1.22 | 1.13 | 1.22
SW 900 | 0.864 | 1.27 | 0.852 | 0.76 | 0.947 | – | – | – | – | – | – | – | – | – | – | – | – | – | – | –
